This is an account of results in US20060142337A1, “Piperidine derivative and use thereof” (priority 2004, published 2006).

Usually melting point stands for the temperature, or range, at which the solid turns liquid. As usually defined, the IC50 is the concentration that inhibits the measured activity by half. A high value points to weaker potency.

For series [1], the system named is urethane anesthetized male guinea pigs. Kind of series: Bladder capacity increasing action in urethane anesthetized guinea pigs. Type of series: in vivo, guinea pig. To be noted: for Changes in bladder capacity (vs before administration, %): mean ± S.E.M. As to the method:
Bladder capacity increasing activity of substance P receptor antagonist (bladder capacity increasing action in urethane anesthetized guinea pigs)
A urinary frequency/urine incontinence suppressing effect of a substance having a substance P receptor antagonistic action was shown in terms of the ability to increase bladder capacity of urethane anesthetized male guinea pigs. After emptying the bladder by suction, saline warmed to 39° C. is infused into the bladder at a constant rate (0.3 mL/min.), until voiding. This procedure was repeated to confirm stable bladder capacity (amount of saline injected before induction of voiding). After confirming a stable response, a compound dissolved in DMSO was intravenously administered and the action was measured. Changes in the bladder capacity after drug administration were measured.

The target of another series is T1, substance P receptor (Homo sapiens, UniProt P25103).
T1 construct: endogenous in cells; host or cells: IM-9 human lymphoblast cells (membrane preparation)
Kind of series: Radioligand receptor binding inhibitory activity using receptor from human lymphoblast cells (IM-9). To be noted: [125I]-BHSP binding, receptor from IM-9 cells, 25 C, 30 min. As to the method:
Radioligand receptor binding inhibitory activity (Binding inhibitory activity using receptor from human lymphoblast cells (IM-9))
The method of M. A. Cascieri et al., “Molecular Pharmacology 42, p. 458 (1992)” was modified and used. The receptor was. prepared from human lymphoblast cells (IM-9). IM-9 cells (2×10^5 cells/mL) were incubated for 3 days (one liter), which was then subjected to centrifuge for 5 min. at 500×G to obtain cell pellets. The obtained pellets were washed once with phosphate buffer (Flow Laboratories, CAT. No. 28-103-05), which were then homogenized using Polytron homogenizer (“Kinematika”, Germany) in 30 mL of 50 mM Tris-HCl buffer (pH 7.4) containing 120 mM sodium chloride, 5 mM potassium chloride, 2 μg/mL chymostatin, 40 μg/mL bacitracin, 5 μg/mL phosphoramidon, 0.5 mM phenylmethylsulfonyl fluoride, 1 mM ethylenediamine tetra-acetate, which was subjected to centrifuge at 40,000×G for 20 min. The residue was washed twice with 30 mL of the buffer, which was then preserved frozen (−80° C.) as a specimen of the receptor.
The specimen was suspended in a reaction buffer (50 mM Tris-HCl buffer (pH 7.4), 0.02% bovine serum albumin, 1 mM phenylmethylsulfonyl fluoride, 2 μg/mL chymostatin, 40 μg/mL bacitracin and 3 mM manganese chloride) to have protein in the concentration of 0.5 mg/mL of protein and 100 μL portion of the suspension was used in the reaction. After addition of the sample and ^125]-BHSP (0.46 KBq), the reaction was allowed to proceed in 0.2 mL of reaction buffer at […] for 30 min. The amount of nonspecific binding was determined by adding substance P at a final concentration of 2×10^−6 M.
After the reaction, using a cell harvester (290 PHD, Cambridge Technology, Inc, U.S.A.), filtration was carried out through a glass filter (GF/B, Whatman, U.S.A.), which was immersed in 0.1% polyethyleneimine for 24 hrs. and dried. After washing three times with 250 μL of 50 mM Tris-HCl buffer (pH 7.4) containing 0.02% bovine serum albumin, the radioactivity remaining on the filter was. determined with a gamma counter.
The antagonistic activity of each compound obtained in Examples was determined in terms of the concentration necessary to cause 50% inhibition (IC50 value) under the above-described conditions, and the results were shown in Table 14.
The radio ligand means substance P labeled with [^125I].

T1 sequence (P25103 whole entry): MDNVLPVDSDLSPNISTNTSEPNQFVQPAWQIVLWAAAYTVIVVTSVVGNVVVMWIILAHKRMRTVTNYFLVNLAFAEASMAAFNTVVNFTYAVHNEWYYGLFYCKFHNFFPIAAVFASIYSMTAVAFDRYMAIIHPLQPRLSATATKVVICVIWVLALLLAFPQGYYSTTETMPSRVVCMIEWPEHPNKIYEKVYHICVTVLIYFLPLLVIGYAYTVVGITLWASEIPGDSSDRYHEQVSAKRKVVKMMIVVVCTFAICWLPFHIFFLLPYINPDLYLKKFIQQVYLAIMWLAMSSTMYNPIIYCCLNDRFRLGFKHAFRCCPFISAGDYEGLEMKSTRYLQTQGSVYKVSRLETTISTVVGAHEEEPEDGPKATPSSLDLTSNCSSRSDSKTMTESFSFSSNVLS

In turn, `C[C@@H](O[C@@H]1CCNC[C@@H]1c1ccccc1)c1cc(C(F)(F)F)cc(C(F)(F)F)c1.Cl` gave a melting point of 150 to 152 °C.
The same measure, in the same setting: the result for `C[C@H](O[C@H]1CCNC[C@H]1c1ccccc1)c1cc(C(F)(F)F)cc(C(F)(F)F)c1.Cl` reads 150 to 152 °C.
`CCC(=O)N[C@H]1CC[C@H](C(=O)N2CC[C@H](O[C@H](C)c3cc(C(F)(F)F)cc(C(F)(F)F)c3)[C@H](c3ccccc3)C2)CC1` [Example 43, N-[trans-4-[[(3R,4S)-4-[(1R)-1-[3,5-Bis(trifluoromethyl)phenyl]ethoxy]-3-phenylpiperidin-1-yl]carbonyl]cyclohexyl]propanamide]: the “Changes in bladder capacity (vs before administration, %)” value worked out at 20.8 ± 5.6% in series [1] (Table 16, 0.01 mg/kg intravenous); 19.3 ± 4.5% in series [1] (Table 16, 0.03 mg/kg intravenous); 39.9 ± 4.9 % in series [1] (Table 16, 0.1 mg/kg intravenous); 55.2 ± 13.3 % in series [1] (Table 16, 0.3 mg/kg intravenous); 74.3 ± 11.1 % in series [1] (Table 16, 1 mg/kg intravenous). At substance P receptor, the IC50 is 0.039 nM.
With `C[C@@H](O[C@H]1OCCN(Cc2n[nH]c(=O)[nH]2)[C@H]1c1ccc(F)cc1)c1cc(C(F)(F)F)cc(C(F)(F)F)c1` [MK-869, 5-[[(2R,3S)-2-[(1R)-1-[3,5-bis(trifluoromethyl)phenyl]ethoxy]-3-(4-fluorophenyl)-4-morpholinyl]methyl]-1,2-dihydro-3H-1,2,4-triazol-3-one, reference compound], the “Changes in bladder capacity (vs before administration, %)” value came to 14.7 ± 4.8% in series [1] (Table 15, 0.1 mg/kg intravenous); 49.5 ± 10.3 % in series [1] (Table 15, 0.3 mg/kg intravenous); 71.2 ± 16.9 % in series [1] (Table 15, 1 mg/kg intravenous). In series [1] (intravenous administration, urethane anesthetized guinea pigs), the voiding pressure result is “without affecting the voiding pressure”.
